Source: US20200230207A1, “TREATMENT OF BONE GROWTH DISORDERS” (FONDAZIONE TELETHON, priority 2015, published 2020)
Square brackets hold non-standard residues; d marks the D form. Ends that are not written are not given here. Peptide text beside a SMILES is read from it. * marks the point of attachment. Cbz = O=C(OCc1ccccc1)*

How the values were obtained:
[1] = system: growth plate chondrocytes; assay: LC3II in femoral growth plates after leupeptin injection; type: in vivo, mouse
Method: FIG. 9: a, Comparative TEM images of P0 and P6 wild type growth plate chondrocytes showing increased autophagosomes (AV) biogenesis at P6. Arrows indicate AVs. Bar graphs show number and size of AVs within 5.3 μm field of view (values represent mean±s.e.m. Student's t-test **p<0.005). b, Western blot analysis of LC3I/II of femoral growth plates from mice at indicated ages. Mice were injected with leupeptin (40 mg/kg i.p. 6h before sacrifice) where indicated. β-actin was used as loading control. Bar graphs show quantification of LC3II protein relative to β-actin (mean±s.e.m. *p<0.05 Student's t-test. n=3/group). c, Representative Western blot analysis of Atg7, LC3 and SQSTM1 (p62) proteins in Atg7 f/f, Col2a1-Cre; Atg7 f/f and Prx1-Cre; Atg7 f/f growth plate lysates. […]
FIG. 15: a, Representative images of high content imaging analysis of primary chondrocytes isolated from GFP-LC3 transgenic mice and treated with vehicle or FGF18 (25 ng /ml for 24 h). […] Scale bar 50 μm. b, Quantification of green vesicles (AVs) in cells treated with the indicated factors for 24h. Vesicles were counted in at least 1000 cells/treatment. […] Bar graphs show % of red vesicles (autolysosomes) and of total vesicles relative to vehicle (Values represent mean values±s.d. At least 10 cells/experiment were analyzed from 3 independent experiments. *p<0.05 ***p<0.0005. Student's t-test). […]

[2] = system: FGFR3ach and FGFR3TD chondrocytes; assay: LC3II in FGFR3 WT, FGFR3ach and FGFR3TD chondrocytes with lysosomal inhibitors; type: cell-based, rat; settings: leupeptin 50 μM 2 h; bafilomycin 200 nM 4 h
Method: Bars graphs represent LC3II quantification relative to β-actin. […] Graphs show representative histograms.
Leupeptin and bafilomycin treatments: Leupeptin (Sigma) was resuspended in water at 10 mM. FGFR3 wild type, FGFR3ach and FGFR3TD stable chondrocytes cell line were treated with 50 μM leupeptin for 2 h at 37° C. Bafilomycin (Millipore) was resuspended in DMSO at 200 μM. FGFR3 wild type, FGFR3 ach and FGFR3TD stable chondrocytes cell line were treated with 200 nM bafilomycin for 4 h at 37° C.

GusbKO chondrocytes = assay: Protein degradation and mTORC1 signaling in GusbKO RCS chondrocytes with Mg132; type: cell-based, rat
Method: FIG. 23: G, WT and GusbKO RCS cells were pulse labelled for 18h with ^3H-Ser and chased for 48h in medium containing vehicle or 100 nM Mg-132. The rate of protein degradation is shown as the fraction of radiolabelled protein remaining over time. Values are expressed as mean (±s.e.m.) of n=3 independent experiments (Student's t-test, * p<0.05, ** p<0.005). H, Luminescent signal resulting from the cleavage of a luminescent Suc-LLVY peptide by the chymotrypsin-like activity of the proteasome was measured in WT and GusbKO RCS cells after 6h treatment with aminoacids. Data are representative of 3 independent experiments and are graphed as relative fluorescence units (RFU) (Student's t-test, * p<0.05). I, Western blot analysis of mTORC1 signaling in WT and GusbKO RCS cells treated with Mg-132 (10 μM) or DMSO (−) for 6h. Arrowheads indicate specific band. J, Bar graphs displaying quantification of relative phosphorylation. Values are expressed as mean (±s.e.m.) of n=3 independent experiments (Student's t-test, * p<0.05, ** p<0.005).

Rx chondrocytes [3] = assay: Procollagen (PC2) secretion and trafficking in Rx chondrocytes; type: cell-based, rat
Method: FIG. 6: a, b, Quantification of secreted PC2 in control and Spautin-1-treated (24 h, 50 μM) (a) and Atg7-knockdown (KD; b) RCS chondrocytes after ER block release of PC2 (min). Ctrl, control. Mean values (±standard deviation (s.d.)) of 3 independent experiments. ANOVA, P=5.29×10^−5 (a), P=0.007 (b); Sidak post-hoc test, […], ***P<0.0005. c, PC2 localization in Golgi area and ER (HSP47) in vehicle and Spautin-1-treated (24 h, 50 μM) RCS chondrocytes 10 min after the ER block release of PC2. Bar graph represents the percentage (±s.d.) of cells containing PC2 in the indicated cellular compartment. N=60; n=3 independent experiments. Student's t-test, **P<0.005. Scale bar, 10 μm. d, Immunofluorescence of PC2, Sec31 and GFP-LC3 in RCS chondrocytes. The insets show higher magnification and single colour channels of the boxed area. N, nucleus. The data are representative of 5 independent experiments. Scale bar, 5 μm. e, Spinning-disk confocal image of RCS chondrocytes co-expressing GFP-LC3- and mCherry-PC2-tagged proteins. Arrows show PC2 molecules sequestered by GFP vesicles. The data are representative of 3 independent experiments. Scale bar, 10 μm. f, Time-lapse stills of PC2 and LC3 from the boxed region in e.
The insets show a high magnification of selected areas. […] The insets show a high magnification of selected areas. Red=collagen; Blue=DAPI. Scale bar 10 μm.
FIG. 14: a a, Immunofluorescence staining of HSP47 chaperone (red) in Atg7^fl/fl and Atg7^fl/fl; Prx1-Cre chondrocytes, showing altered HSP47 distribution in Prx1-Cre; Atg7^fl/fl chondrocytes. The data are representative of 3 independent experiments. Insets show a higher magnification of the boxed area. Scale bar, 10 μm. Blue, DAPI. b, Co-localization of PC2 with HSP47 in growth-plate chondrocytes of mice with indicated genotypes. The data are representative of 3 independent experiments. Scale bar, 20 μm. c, Altered HSP47 and PC2 trafficking in Spautin-1-treated chondrocytes. HSP47 and PC2 immunostaining in control (vehicle) or Spautin-1-treated RCS chondrocytes. Synchronized PC2 secretion was obtained after incubating chondrocytes for 3 h at 40° C. to block PC2 in the ER, and then shifting the temperature to 32° C. (ER block release) for 10 min. The data are representative of 2 independent experiments. Scale bar, 10 μm. d, Proposed model of autophagy function in chondrocytes. Autophagy in chondrocytes prevents PC2 aggregation and maintains ER homeostasis during the process of PC2 secretion. e, Confocal analysis of GFP-LAMP1 (green) and mCherry-PC2 (red) in vehicle- and Spautin-1-treated chondrocytes at the indicated time points (min) after the ER block release. The insets show a high magnification of the selected area. Scale bar, 5 μm. f, Quantification of GFP-LAMP1/mCherry-PC2 co-localization. Values represent mean±s.d. from three independent experiments. N=30. […] The data are representative of 2 independent experiments. Scale bar, 10 μm.
Live cell imaging: Rx chondrocytes were reverse transfected and plated in Mattek glass bottomed dishes. Collagen transport assays were performed by incubating cells at 40° C. on the heated stage for 2.5 h. Collagen release was initiated by lowering the temperature of the stage to 32° C. and medium being supplemented with 50 μg/ml ascorbate.
Procollagen secretion assay: To follow PC2 secretion in Rx chondrocytes, cells were pretreated ON with ascorbate (100 μg/ml) in DMEM without FCS. […]

[4] = system: primary chondrocytes isolated from GFP-LC3 mice; assay: High content GFP-LC3 vesicle count in primary chondrocytes; type: cell-based, mouse; settings: in the presence of BafA1, 25 ng/ml for 24 h
Method: (§1) FIG. 15: a, Representative images of high content imaging analysis of primary chondrocytes isolated from GFP-LC3 transgenic mice and treated with vehicle or FGF18 (25 ng /ml for 24 h). BafA1 was used where indicated for 4 h (200 nM). Green spots represent GFP labeled AVs. Scale bar 50 μm. b, Quantification of green vesicles (AVs) in cells treated with the indicated factors for 24h. Vesicles were counted in at least 1000 cells/treatment. […] Bar graphs show % of red vesicles (autolysosomes) and of total vesicles relative to vehicle (Values represent mean values±s.d. At least 10 cells/experiment were analyzed from 3 independent experiments. *p<0.05 ***p<0.0005. Student's t-test). […] Quantification of data (mean±s.e.m of n=5 mice/group. *p<0.05, Student's t-test) f, Western blot analysis of Fgf18+/+ and Fgf18+/− growth plate lysates. […]
High content screening analysis in GFP-LC3 primary chondrocytes: Primary chondrocytes were plated in CellCarrier-96 Black plates (6005558, Perkin Elmer). […] To carry out the analysis the number of cytoplasmic GFP-LC3 spots in the cytoplasm of Col2 positive cells were counted, and expressed per cell. Levels of colocalization between GFP-LC3 and Col2a1 were assessed and expressed as %, using the parameters: area of colocalization of red spots with area of green spots normalized to total area of green spots. […]

Rx chondrocytes [5] = assay: Tandem mRFP-EGFP-LC3 autophagic flux in Rx chondrocytes; type: cell-based, rat; settings: 25 ng/ml for 24 h
Method: as §1, with “cells/treatment. Values represent mean values±s.d. of n=3 independent experiments; Statistical analysis was performed using repeated measure ANOVA with TUKEYs post-hoc test. **p<0.005. c, Western blot analysis of primary chondrocytes isolated from wild type mice treated as indicated (FGF18 25 ng/ml, 24 h). Where indicated BafA1 was added (200 nM, 4h).” for “cells/treatment.”

VPS34-Beclin 1 complex = assay: Bcl2 phosphorylation, Beclin 1 co-immunoprecipitation and PI3K assay in Rx chondrocytes; type: cell-based, rat; settings: 25 ng/ml
[6] = system: rat model of osteoarthritis; settings: intra articular injection; cited from earlier work
MPSVII mice [7] = assay: Femur and tibia lengths in MPSVII mice; type: in vivo, mouse; settings: 2 mg/kg i.p. daily, P15 and P30
Method: (§2) Control mice were injected with vehicle only. Mice were sacrificed after 15 (P15) and 30 (P30) days.
(§3) Skeletal staining: Skeletons were fixed in 95% ethanol overnight (ON) and stained with alcian blue and alizarin red according to standardized protocols (http://empress.har.mrc.ac.uk/browser/). Three to five mice of each genotype were analyzed per stage. Measurement of bone length was performed using ImageJ software.

MPSVI mice = assay: Femur and tibia lengths in MPSVI mice; type: in vivo, mouse; settings: 2 mg/kg i.p. daily for 15 days, P15
Method: as §2, §3

MPSVII mice [8] = assay: Growth plate histology, BrDU index and collagen in MPSVII mice; type: in vivo, mouse; settings: 2 mg/kg i.p. daily, P15
[9] = synchronized PC2 secretion, 24 h, 50 μM

## CC(=O)N[C@@H](CC(C)C)C(=O)N[C@@H](CC(C)C)C(=O)N[C@H](C=O)CCCNC(=N)N [Leupeptin]
[1]; 40 mg/kg i.p. 6h before sacrifice, P2 and P6
  LC3II levels in the growth plate of wild type mice: further increased the levels of LC3II in the growth plate of P6 but not P2 mice
[1]; 40 mg/kg i.p. 6 h before sacrifice, P6
  LC3II levels in the growth plate of control and Fgf18+/- mice: significantly increased LC3II levels in the growth plate of P6 control but not in Fgfl 8 mice
[2]
  level of LC3II protein compared to FGFR3 wild type stable cells: did not increase

## CC(C)C[C@@H](C=O)NC(=O)[C@H](CC(C)C)NC(=O)[C@H](CC(C)C)NC(=O)OCc1ccccc1 [Mg132] (Cbz-Leu-Leu-Leu-aldehyde)
GusbKO chondrocytes; 100 nM, 48h chase
  increased protein degradation rate of GusbKO chondrocytes: completely blunted
GusbKO chondrocytes; 10 μM, 6h
  mTORC1 signaling: normalized

## FGF18: fibroblast growth factor 18 (Peprotech)
Rx chondrocytes [3]; FGF18 25 ng/ml
  efficiency of PC2 secretion compared to non-stimulated cells: higher efficiency
[4]
  AV number (autophagosome biogenesis): increase significantly
Rx chondrocytes [5]
  autophagic flux (autolysosome number): enhanced
VPS34-Beclin 1 complex; 2h
  interaction of Beclin 1-Bcl2: decreased
VPS34-Beclin 1 complex; 2 h, JNK dependent
  VPS34-Beclin 1 complex activity (PI3P levels produced): increases
VPS34-Beclin 1 complex; 2h, JNK-dependent
  phosphorylation of Bcl-2: increases
[6]
  repair of damaged cartilage: can stimulate the repair of damaged cartilage

## bafilomycin
[2]
  level of LC3II protein compared to FGFR3 wild type stable cells: did not increase

## Fc1ccc(CNc2ncnc3ccc(F)cc23)cc1 [Spautin-1]
Rx chondrocytes [3]; Spautin-1 24h added to FGF18-stimulated cells
  FGF18-induced increase of PC2 secretion: hampered this increase
Rx chondrocytes [3]; cultured chondrocytes
  ER to cis-Golgi trafficking of HSP47: inhibited
Rx chondrocytes [3]; [9]
  PC2 localization in the ER: retention of PC2 in the ER
  PC2 secretion: defective PC2 secretion

## RRRQRRKKRGYGGTGFEGDHWIEFTANFVNT ([dR][dR][dR][dQ][dR][dR][dK][dK][dR]G[dY]GG[dT]G[dF][dE]G[dD][dH][dW][dI][dE][dF][dT][dA][dN][dF][dV][dN][dT]; also: retro-inverso)
MPSVII mice [7]
  femoral and tibial growth retardation: rescues
MPSVI mice
  femoral and tibial growth retardation: rescues
MPSVII mice [8]
  collagen levels in femoral and tibia cartilages: normalizes
  growth plate differentiation and proliferation defects: normalizes
